Here are results for 68 compounds from PubChem BioAssay AID179 (DTP/NCI, 2004).

pEC50, pIC50: −log10 of the molar value. Activity calls are given as the source filed them.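 The calls were made as follows: active = compounds giving half or more protection of infected cells from virus-caused growth loss, again on retest; inactive = the rest.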

For orientation: pEC50 means −log10 of the EC50, conventionally taken in molar units. The pIC50 is the negative decadic logarithm of the IC50, by convention in mol/L. Read a high pIC50 as a low IC50.

The experiment relates to CEM cells HIV-1 protection, formazan growth assay. Kind of experiment: NCI AIDS Antiviral Assay. The settings on record: for pIC50: measured here: growth of uninfected CEM cells. The method in brief:
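Protection of CEM cells against HIV-1 was scored from cell growth (soluble formazan) across five concentrations, with parallel uninfected cells. Lack of protection may reflect toxicity.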

`[Cl][Bi]([Cl])([c]1ccccc1)([c]1ccccc1)[c]1ccccc1`: the pEC50 is below 4.71 and the pIC50 was 5.47.

As for `COC(=O)C(/C(=N/N)C(=O)Nc1cccc(O)c1)c1nc2ccccc2[nH]c1=O` (stereo not drawn), the pEC50 is below 4.46 and the negative logarithm of the IC50 (pIC50) is below 4.46.

`C=C(C)Cn1c(=O)c2c(ncn2C)n(C)c1=O`: the pEC50 was below 3.70 and the pIC50 was below 3.70.

On to `COC1CC(OC2C(C)OC(OC3C(C)OC(OC4C(C)OC(O[C@H]5CC[C@@]6(C)C(=CC[C@]7(O)[C@@H]6C[C@@H](OC(C)=O)[C@@]6(C)[C@]7(O)CC[C@@]6(O)C(C)=O)C5)CC4OC)CC3OC)CC2OC)OC(C)C1O` (stereo partly drawn), for which the pEC50 is below 3.70 and the pIC50 was below 3.70.

In the case of `CC(C)(C)N/N=C(\C(=O)NC1=C(Cl)C(=O)c2ccccc2C1=O)C1C=CCS1(=O)=O` (stereo not drawn), the pEC50 is below 3.68 and the negative-log IC50 (pIC50) is 4.89.

Regarding `Cc1nc(Nc2ccc(Cl)cc2)sc1C(=O)NNC(=O)C(=O)NN`, the pEC50 is below 4.71 and the negative logarithm of the IC50 (pIC50) was below 4.71.

With `O=C1C(Cl)C(c2ccccc2O)N1n1cnc2ccccc2c1=O` (stereo not drawn), the pEC50 was below 4.84 and the negative logarithm of the IC50 (pIC50) is below 4.84.

In the case of `O=c1[nH]c2nccnc2c2c([N+](=O)[O-])cccc12`, the pEC50 was below 3.70 and the negative logarithm of the IC50 (pIC50) was below 3.70.

With `N#CC1(C#N)C(=O)c2ccncc2C1=O`, the pEC50 was below 3.70 and the negative logarithm of the IC50 (pIC50) is below 3.70.

As to `CC(=O)N/N=C(\C=C\c1ccccc1)c1ccccc1OC(C)=O`, the pEC50 is below 3.70 and the negative-log IC50 (pIC50) is 3.97.

Turning to `NC(CS)=NCCc1nc2ccccc2[nH]1`, the pEC50 is below 3.70 and the pIC50 is 3.96.

Take `NNC(N)Nc1ccccc1` (stereo not drawn): the pEC50 was below 3.70 and the negative logarithm of the IC50 (pIC50) is below 3.70.

`CCOC(=O)CC[C@H](NC(=O)c1ccc(CNc2nc3cc(C(F)(F)F)ccc3nc2C(=O)OCC)cc1)C(=O)OCC`: the pEC50 is below 4.00 and the negative logarithm of the IC50 (pIC50) was below 4.00.

Regarding `CCN(CC)CCC(=O)Nc1ccc2c(c1)C(=O)c1ccc(NC(=O)CCN(CC)CC)cc1C2=O`, the pEC50 was below 3.70 and the pIC50 was 5.47.

Consider `CCCCn1c(-c2ccccc2)cs/c1=N\NC(=O)Cn1c(C)nc2ccccc21`, for which the pEC50 was below 4.07 and the pIC50 was 4.46.

With `CCCCC1Sc2cc(OC)cc3nnn(c23)C1=O` (stereo not drawn), the pEC50 is below 3.70 and the pIC50 was below 3.70.

For `Cc1ccc(-n2c(N)c(C#N)c3[nH]nc(N)c3c2=O)cc1`, the pEC50 is below 3.70 and the pIC50 is below 3.70.

Turning to `O=c1oc2ccccc2c(-c2ccc(O)cc2)c1Oc1ccccc1`, the pEC50 was below 3.70 and the pIC50 was 4.70.

Turning to `S=C(N/N=C\c1ccccn1)N(Cc1ccccn1)Cc1ccccn1`, the pEC50 is below 5.70 and the pIC50 is 6.02.

For the compound `CC1(C)OC2COC3([C@@H]4OC(C)(C)O[C@@H]4CO)OC(C)(C)OC3C2O1` (stereo partly drawn), the pEC50 was below 3.70 and the negative logarithm of the IC50 (pIC50) is below 3.70.

Consider `COC(=O)C(=O)C(C(=O)C=C(C)C)C(=O)C(=O)Nc1cc(C(F)(F)F)ccc1Cl` (stereo not drawn), for which the pEC50 is below 4.08 and the pIC50 was below 4.08.

Turning to `COC(=O)C(C)(NC(=O)C(CC(=O)OC(C)(C)C)NC(=O)OC(C)(C)C)c1ccccc1` (stereo not drawn), the pEC50 was below 3.70 and the negative-log IC50 (pIC50) is below 4.00.

`O=C(NCCCNC(=O)c1ccccc1O)c1ccccc1O`: the pEC50 is below 3.70 and the negative logarithm of the IC50 (pIC50) was 4.16.

Turning to `COc1ccc(C(=O)/C(=N/Nc2ccccc2)c2ccc(OC)cc2)cc1`, the outcome was inactive.

As to `CC(=O)NC(CCC(=O)c1ccc(Oc2ccccc2)cc1)(C(=O)O)C(=O)O`, the pEC50 is below 3.70 and the pIC50 was below 3.70.

As to `Cc1cc(Cl)c(O)c(C(=O)C(=O)C(O)c2ccc3c(c2)OCO3)c1` (stereo not drawn), the pEC50 is below 3.70 and the negative logarithm of the IC50 (pIC50) was 5.61.

Turning to `CC1(C)CCCCC1/C=C/C(CC(O)(C(F)(F)F)C(F)(F)F)=N\Nc1ccc([N+](=O)[O-])cc1[N+](=O)[O-]` (stereo not drawn), the pEC50 was below 5.70 and the pIC50 was 6.33.

As to `COC(=O)c1ccc(OCc2ccc3oc(=O)c(-c4ccccc4)nc3c2)cc1`, the pEC50 is below 5.85 and the negative logarithm of the IC50 (pIC50) is below 5.85.

For the compound `Nc1nc(Cl)c2ncn(C3CC=C(CO)CC3)c2n1` (stereo not drawn), the pEC50 is below 3.05 and the pIC50 was 4.29.

`CCP(=O)(CC)C(Cl)(Cl)C(=O)NC`: the pEC50 is below 3.70 and the pIC50 was below 3.70.

As for `C=C1CN(S(=O)(=O)c2ccc(C)cc2)CCCN(CCCC)CCCN(S(=O)(=O)c2ccc(C)cc2)C1`, the pEC50 is below 3.70 and the negative logarithm of the IC50 (pIC50) is 5.72.

Regarding `N#C/C(=C\c1ccccc1)S(=O)(=O)/C(C#N)=C/c1ccc(O)c(O)c1`, the pEC50 is below 3.70 and the pIC50 is 4.53.

`Cc1ccc(S(=O)(=O)NC(=O)NCCc2ccccc2)cc1`: the pEC50 was 5.15 and the pIC50 was 3.53.

With `COc1ccc(N2C(=O)C(=O)N(c3ccccc3[N+](=O)[O-])C2=S)cc1`, the pEC50 was below 3.70 and the pIC50 is 4.56.

As for `COC(=O)c1cc(C#N)[nH]c1-c1ccc(Br)s1`, the pEC50 is below 3.70 and the negative-log IC50 (pIC50) is 5.36.

Turning to `COC/C=C\[C@]1(O)CCCC[C@@H]1CC(OC)OC`, the pEC50 was below 3.70 and the negative logarithm of the IC50 (pIC50) is 4.51.

`O=C1c2ccccc2CC12Cc1cc3c(cc1C2)CCC3`: the pEC50 is below 3.70 and the pIC50 is below 3.70.

As to `COc1ccc2c3c1OC1C(OC)(OC)CC4(C=C2)CN(C)CCC314` (stereo not drawn), the result was inactive.

For the compound `CCN(c1ccccc1)[C@H]1C(=O)N(c2ccc([N+](=O)[O-])cc2)[C@H]1c1ccc(OC)cc1`, the result was inactive.

As for `CC1(n2[nH]c(=O)n(-c3ccccc3)c2=O)Cn2c(=O)n(-c3ccccc3)c(=O)n2-c2ccccc21` (stereo not drawn), the pEC50 was below 3.70 and the pIC50 was below 3.70.

For the compound `CC(Cc1ccccc1)NN(CS(=O)(=O)O)CS(=O)(=O)O` (stereo not drawn), the result was inactive.

On to `CN(C)c1nc(Cl)c2c(-c3ccccc3)c(-c3ccccc3)oc2n1`, for which the result was inactive.

As to `O=S(=O)(CC#CCO)c1ccc2ccccc2c1`, the result was inactive.

Turning to `CSc1c2c([nH]c(=O)c1C#N)-c1ccccc1CC2`, the pEC50 is below 3.70 and the pIC50 was 3.78.

`CC1(C)N/C(=C\[N+](=O)[O-])C(C)(C)N1O`: the pEC50 was below 3.70 and the negative-log IC50 (pIC50) is below 3.70.

`CC1=C/C(=N\O)C(C(O)(C(F)(F)F)C(F)(F)F)C(C)(C)C1` (stereo not drawn): the pEC50 was below 3.70 and the pIC50 is 3.87.

`O=C(O)c1ccccc1-c1c2cc([N+](=O)[O-])c(=O)c(Br)c-2oc2c(Br)c(O)c([N+](=O)[O-])cc12` showed a pEC50 below 3.50 and a pIC50 of 5.09.

Turning to `CCC(c1ccc(OC(C)=O)c(CC(Br)CBr)c1)C(CC)c1ccc(OC(C)=O)c(CC(Br)CBr)c1` (stereo not drawn), the pEC50 was below 4.00 and the pIC50 was 4.79.

As for `OCC(O)COc1ccc(F)cc1` (stereo not drawn), the pEC50 was below 2.87 and the pIC50 was below 2.87.

For the compound `CCn1c(=O)c(N=O)c(N)n(CC(C)O)c1=O` (stereo not drawn), the pEC50 is below 3.70 and the pIC50 was below 3.70.

Take `Nc1nc2c(ccc3ccccc32)[nH]1`: the result was inactive.

`N#Cc1c(-c2cccc3ccccc23)c2c([nH]c1=S)CCCC2`: the negative logarithm of the EC50 (pEC50) is below 4.10 and the pIC50 is 4.46.

For the compound `O=c1/c(=C\c2ccccc2)sc2n1C(c1ccccc1)C1(O)CCCCC1N=2` (stereo not drawn), the pEC50 is below 3.70 and the pIC50 was 4.22.

Regarding `C(=C1/CCCCC([n+]2ccccc2)=N1)/c1ccccc1`, the outcome was inactive.

With `CCCC/C(=N\OC(=O)N(C)C)c1ccccc1`, the pEC50 was below 3.70 and the negative-log IC50 (pIC50) was below 4.00.

Regarding `Cn1c2cc(Cl)ccc2c2ccc3c(c21)C(=O)C=CC3=O`, the pEC50 is below 3.70 and the pIC50 is 5.38.

Take `Cc1cn([C@@H]2C[C@](C)(CO)N(C)O2)c(=O)[nH]c1=O`: the pEC50 was below 3.70 and the pIC50 was below 3.70.

In turn, `CCC(C)C(NC(=O)C(CCCCN)NC(=O)CNC(=O)C(NC(=O)C(NC(=O)C(NC(=O)C(Cc1ccccc1)NC(=O)C(C)NC(=O)C(CCCNC(=N)N)NC(=O)CNC(=O)C1CCCN1C(=O)CNC(=O)C(CCCNC(=N)N)NC(=O)C(CCC(N)=O)NC(=O)C(NC(=O)C(CCCNC(=N)N)NC(=O)C(NC(=O)C(CO)NC(=O)C(CCCCN)NC(=O)C(CCCNC(=N)N)NC(=O)C(NC(=O)C(CC(N)=O)NC(=O)C(N)CC(N)=O)C(C)O)C(C)CC)C(C)CC)C(C)C)C(C)OC1OC(CO)C(O)C(O)C1NC(C)=O)C(C)CC)C(=O)NCC(N)=O` (stereo not drawn) showed a negative logarithm of the EC50 (pEC50) of 4.61 and a pIC50 of 4.30.

As for `Cc1ccccc1Nc1nc(-c2ccccc2)nc(N)c1N=O`, the pEC50 is below 3.70 and the negative-log IC50 (pIC50) is 4.66.

`O=[N+]([O-])c1cc(Cl)ccc1Sc1ccc(Cl)cc1[N+](=O)[O-]`: the pEC50 is below 3.89 and the negative-log IC50 (pIC50) was below 3.89.

In the case of `CNc1ccc(F)cc1SSc1cc(F)ccc1NC`, the pEC50 was below 3.70 and the pIC50 was 5.32.

As to `CN(C)CCNC(=O)c1cccc2c(NCCN(C)C)c3ccccc3nc12`, the pEC50 was below 4.70 and the pIC50 was 5.68.

Turning to `COc1cc2c(c(OC)c1OC)CCC1(C)C(=O)NN=C21` (stereo not drawn), the pEC50 was below 3.06 and the pIC50 is 3.56.

With `CCCCCCCCCCCCCCCCOCC(COC1OC(COC(C)=O)C(OC(C)=O)C(OC(C)=O)C1OC(C)=O)OCCCCCCCCCCCCCCCC` (stereo not drawn), the pEC50 is below 4.53 and the pIC50 was below 4.53.

Consider `CN(C)c1c(C2CC(O)C(CO)O2)c(=O)c1=O` (stereo not drawn), for which the pEC50 is below 3.70 and the negative logarithm of the IC50 (pIC50) was below 3.70.

In the case of `[B]C(=O)NC(CC(C)C)C(=O)NCC(=O)NC1c2ccsc2C(=O)C1O` (stereo not drawn) (tested in a mixture with another compound), the pEC50 is below 3.70 and the pIC50 was below 3.70.

As to `O=C1CSC2=NCC3(NN12)c1ccccc1-c1ccccc13`, the pEC50 was below 3.70 and the pIC50 was below 4.00.

For the compound `CC1(c2nc3ccccc3[nH]2)CCC(CO)C(C)(C)O1` (stereo not drawn), the pEC50 was below 3.70 and the pIC50 is below 3.70.
